Columns and labels:
Type in all cases: in vivo
[1] = system: Beet Armyworm (Spodoptera exigua); experiment: Bioassays on BAW, 128-well diet tray assay; conditions: Spodoptera exigua, 168 h; 50 μg/cm^2 on artificial diet, second instar larvae, five to seven days; read-out: BAW % Control (or Mortality) rating
[2] = system: Cabbage Looper (Trichoplusia ni); experiment: Bioassays on CL, 128-well diet tray assay; conditions: Trichoplusia ni, 168 h; 50 μg/cm^2 on artificial diet, second instar larvae, five to seven days; read-out: CL % Control (or Mortality) rating
How it was run: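 Second-instar larvae (1–5 per well) were fed diet surface-treated with 50 μg/cm^2 compound, eight wells each. After five to seven days at 25° C. under a 14:10 photoperiod, mortality was scored per well and the eight wells averaged.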

[3] = system: Yellow Fever Mosquito (Aedes aegypti); experiment: Bioassays on Yellow Fever Mosquito larvae, 96-well plate; conditions: from 4000 ppm DMSO master plate, about 1 day-old larvae, 3 days
Description: Master plates containing 400 μg of a molecule dissolved in 100 μL of dimethyl sulfoxide (DMSO) (equivalent to a 4000 ppm solution) are used. A master plate of assembled molecules contains 15 μL per well. To this plate, 135 μL of a 90:10 water:acetone mixture is added to each well. A robot (Biomek® NXP Laboratory Automation Workstation) is programmed to dispense 15 μL aspirations from the master plate into an empty 96-well shallow plate (“daughter” plate). There are 6 reps (“daughter” plates) created per master. The created daughter plates are then immediately infested with YFM larvae.
The day before plates are to be treated, mosquito eggs are placed in Millipore water containing liver powder to begin hatching (4 g. into 400 mL). After the daughter plates are created using the robot, they are infested with 220 μL of the liver powder/larval mosquito mixture (about 1 day-old larvae). After plates are infested with mosquito larvae, a non-evaporative lid is used to cover the plate to reduce drying. Plates are held at room temperature for 3 days prior to grading. After 3 days, each well is observed and scored based on mortality. The results are indicated in the table entitled “Table ABC: Biological Results” (See Table Section). AGRICULTURALLY ACCEPTABLE ACID ADDITION SALTS, SALT DERIVATIVES, SOLVATES, ESTER DERIVATIVES, POLYMORPHS, ISOTOPES, AND RADIONUCLIDES

Structure (SMILES)	mortality at 50 µg/cm2 [1]	mortality at 50 µg/cm2 [2]	YFM % Control (or Mortality) rating [3]
C[C@H](CS(=O)(=O)CC(F)(F)F)NC(=O)c1ccc(/C=C/C(c2cc(Br)cc(Br)c2)C(F)(F)F)cc1Cl (stereo partly drawn) [F65, 2-Chloro-4-((E)-3-(3,5-dibromophenyl)-4,4,4-trifluorobut-1-en-1-yl)-N—((R)-1-((2,2,2-trifluoroethyl)sulfonyl)propan-2-yl)benzamide]	50 to 100%	50 to 100%	A (80-100)
Cc1cc(/C=C/C(c2cc(Br)cc(Br)c2)C(F)(F)F)ccc1C(=O)N[C@H](C)CS(=O)(=O)CC(F)(F)F (stereo partly drawn) [F66, 4-((E)-3-(3,5-Dibromophenyl)-4,4,4-trifluorobut-1-en-1-yl)-2-methyl-N—((R)-1-((2,2,2-trifluoroethyl)sulfonyl)propan-2-yl)benzamide]	50 to 100%	50 to 100%	A (80-100)
C[C@H](CSCC(F)(F)F)NC(=O)c1ccc(/C=C/C(c2cc(Cl)c(Cl)c(Cl)c2)C(F)(F)F)cc1Cl (stereo partly drawn) [F67, 2-Chloro-4-((E)-4,4,4-trifluoro-3-(3,4,5-trichlorophenyl)but-1-en-1-yl)-N—((R)-1-((2,2,2-trifluoroethyl)thio)propan-2-yl)benzamide]	50 to 100%	50 to 100%	A (80-100)
CC[S+]([O-])C[C@@H](C)NC(=O)c1ccc(/C=C/C(c2cc(Cl)c(Cl)c(Cl)c2)C(F)(F)F)cc1C(F)(F)F (stereo partly drawn) [F69, N-((2R)-1-(Ethylsulfinyl)propan-2-yl)-4-((E)-4,4,4-trifluoro-3-(3,4,5-trichlorophenyl)but-1-en-1-yl)-2-(trifluoromethyl)benzamide]	50 to 100%	50 to 100%	A (80-100)
CCCSC[C@@H](C)NC(=O)c1ccc(/C=C/C(c2cc(Cl)c(Cl)c(Cl)c2)C(F)(F)F)cc1C(F)(F)F (stereo partly drawn) [F70, N—((R)-1-(Propylthio)propan-2-yl)-4-((E)-4,4,4-trifluoro-3-(3,4,5-trichlorophenyl)but-1-en-1-yl)-2-(trifluoromethyl)benzamide]	50 to 100%	50 to 100%	A (80-100)
CCc1cc(/C=C/C(c2cc(Cl)c(Cl)c(Cl)c2)C(F)(F)F)ccc1C(=O)N[C@H](C)CS(=O)(=O)CC(F)(F)F (stereo partly drawn) [F71, 2-Ethyl-4-((E)-4,4,4-trifluoro-3-(3,4,5-trichlorophenyl)but-1-en-1-yl)-N—((R)-1-((2,2,2-trifluoroethyl)sulfonyl)propan-2-yl)benzamide]	50 to 100%	50 to 100%	A (80-100)
C[C@H](C[S+]([O-])CC(F)(F)F)NC(=O)c1ccc(/C=C/C(c2cc(Br)cc(Br)c2)C(F)(F)F)cc1Cl (stereo partly drawn) [F72, 2-Chloro-4-((E)-3-(3,5-dibromophenyl)-4,4,4-trifluorobut-1-en-1-yl)-N-((2R)-1-((2,2,2-trifluoroethyl)sulfinyl)propan-2-yl)benzamide]	50 to 100%	50 to 100%	A (80-100)
Cc1cc(/C=C/C(c2cc(Br)cc(Br)c2)C(F)(F)F)ccc1C(=O)N[C@H](C)C[S+]([O-])CC(F)(F)F (stereo partly drawn) [F73, 4-((E)-3-(3,5-Dibromophenyl)-4,4,4-trifluorobut-1-en-1-yl)-2-methyl-N-((2R)-1-((2,2,2-trifluoroethyl)sulfinyl)propan-2-yl)benzamide]	50 to 100%	50 to 100%	A (80-100)
CC(C)CSC[C@@H](C)NC(=O)c1ccc(/C=C/C(c2cc(Cl)c(Cl)c(Cl)c2)C(F)(F)F)cc1C(F)(F)F (stereo partly drawn) [F85, N—((R)-1-(Isobutylthio)propan-2-yl)-4-((E)-4,4,4-trifluoro-3-(3,4,5-trichlorophenyl)but-1-en-1-yl)-2-(trifluoromethyl)benzamide]	50 to 100%	50 to 100%	A (80-100)
CC(C)SC[C@@H](C)NC(=O)c1ccc(/C=C/C(c2cc(Cl)c(Cl)c(Cl)c2)C(F)(F)F)cc1C(F)(F)F (stereo partly drawn) [F86, N-((R)-1-(Isopropylthio)propan-2-yl)-4-((E)-4,4,4-trifluoro-3-(3,4,5-trichlorophenyl)but-1-en-1-yl)-2-(trifluoromethyl) benzamide]	50 to 100%	50 to 100%	A (80-100)
CC(C)C[S+]([O-])C[C@@H](C)NC(=O)c1ccc(/C=C/C(c2cc(Cl)c(Cl)c(Cl)c2)C(F)(F)F)cc1C(F)(F)F (stereo partly drawn) [F87, N-((2R)-1-(Isobutylsulfinyl)propan-2-yl)-4-((E)-4,4,4-trifluoro-3-(3,4,5-trichlorophenyl)but-1-en-1-yl)-2-(trifluoromethyl)benzamide]	50 to 100%	50 to 100%	A (80-100)
C[C@H](CSCC(F)(F)F)NC(=O)c1ccc(/C=C/C(c2cc(Cl)cc(Cl)c2)C(F)(F)F)cc1C(F)(F)F (stereo partly drawn) [F88, 4-((E)-3-(3,5-Dichlorophenyl)-4,4,4-trifluorobut-1-en-1-yl)-N—((R)-1-((2,2,2-trifluoroethyl)thio)propan-2-yl)-2-(trifluoromethyl)benzamide]	50 to 100%	50 to 100%	A (80-100)
Cc1cc(/C=C/C(c2cc(Cl)cc(Cl)c2)C(F)(F)F)ccc1C(=O)N[C@H](C)CSCC(F)(F)F (stereo partly drawn) [F89, 4-((E)-3-(3,5-Dichlorophenyl)-4,4,4-trifluorobut-1-en-1-yl)-2-methyl-N—((R)-1-((2,2,2-trifluoroethyl)thio)propan-2-yl)benzamide]	50 to 100%	50 to 100%	A (80-100)
C[C@H](C[S+]([O-])CC(F)(F)F)NC(=O)c1ccc(/C=C/C(c2cc(Cl)cc(Cl)c2)C(F)(F)F)cc1C(F)(F)F (stereo partly drawn) [F90, 4-((E)-3-(3,5-Dichlorophenyl)-4,4,4-trifluorobut-1-en-1-yl)-N-((2R)-1-((2,2,2-trifluoroethyl)sulfinyl)propan-2-yl)-2-(trifluoromethyl)benzamide]	50 to 100%	50 to 100%	A (80-100)
Cc1cc(/C=C/C(c2cc(Cl)cc(Cl)c2)C(F)(F)F)ccc1C(=O)N[C@H](C)C[S+]([O-])CC(F)(F)F (stereo partly drawn) [F91, 4-((E)-3-(3,5-Dichlorophenyl)-4,4,4-trifluorobut-1-en-1-yl)-2-methyl-N-((2R)-1-((2,2,2-trifluoroethyl)sulfinyl)propan-2-yl)benzamide]	50 to 100%	50 to 100%	A (80-100)
Cc1cc(/C=C/C(c2cc(Cl)cc(Cl)c2)C(F)(F)F)ccc1C(=O)N[C@H](C)CS(=O)(=O)CC(F)(F)F (stereo partly drawn) [F92, 4-((E)-3-(3,5-Dichlorophenyl)-4,4,4-trifluorobut-1-en-1-yl)-2-methyl-N—((R)-1-((2,2,2-trifluoroethyl)sulfonyl)propan-2-yl)benzamide]	50 to 100%	50 to 100%	A (80-100)
C[C@H](CS(=O)(=O)CC(F)(F)F)NC(=O)c1ccc(/C=C/C(c2cc(Cl)cc(Cl)c2)C(F)(F)F)cc1C(F)(F)F (stereo partly drawn) [F93, 4-((E)-3-(3,5-Dichlorophenyl)-4,4,4-trifluorobut-1-en-1-yl)-N—((R)-1-((2,2,2-trifluoroethyl)sulfonyl)propan-2-yl)-2-(trifluoromethyl)benzamide]	50 to 100%	50 to 100%	A (80-100)
C[C@H](C[S+]([O-])CC(F)(F)F)NC(=O)c1ccc(/C=C/C(c2cc(Cl)cc(Cl)c2)C(F)(F)F)cc1Cl (stereo partly drawn) [F94, 2-Chloro-4-((E)-3-(3,5-dichlorophenyl)-4,4,4-trifluorobut-1-en-1-yl)-N-((2R)-1-((2,2,2-trifluoroethyl)sulfinyl)propan-2-yl)benzamide]	50 to 100%	50 to 100%	A (80-100)
C[C@H](CS(=O)(=O)CC(F)(F)F)NC(=O)c1ccc(/C=C/C(c2cc(Cl)cc(Cl)c2)C(F)(F)F)cc1Cl (stereo partly drawn) [F95, 2-Chloro-4-((E)-3-(3,5-dichlorophenyl)-4,4,4-trifluorobut-1-en-1-yl)-N—((R)-1-((2,2,2-trifluoroethyl)sulfonyl)propan-2-yl)benzamide]	50 to 100%	50 to 100%	A (80-100)
C[C@H](CCSCC(F)(F)F)NC(=O)c1ccc(/C=C/C(c2cc(Cl)c(Cl)c(Cl)c2)C(F)(F)F)cc1C(F)(F)F (stereo partly drawn) [F96, 4-((E)-4,4,4-Trifluoro-3-(3,4,5-trichlorophenyl)but-1-en-1-yl)-N—((R)-4-((2,2,2-trifluoroethyl)thio)butan-2-yl)-2-(trifluoromethyl)benzamide]	50 to 100%	50 to 100%	A (80-100)
